According to patent US9376470B2, “Polypeptide having angiogenesis-inducing activity and antibacterial activity, and use thereof for medical purposes” (FunPep Inc., priority 2008, dated 2016):
Peptide text beside a SMILES is read from it.

How the values were obtained:
Assay in all cases: Antibacterial activity, ATP assay (BacTiter-Glo)
Assay type in all cases: cell-based
[1] = test system: Escherichia coli ATCC 25922; settings: ATP assay concentration: peptides 10, TOB 1.0, CPFX 0.015, OX 0.5, MEPM 0.1 μg/ml
Experimental: (§1) That is, using BacTiter-Glo Microbial Cell Viability Assay kit available from PROMEGA, the antibacterial activity of the peptides was evaluated from the viability of bacteria. […] With respect to the strains, Staphylococcus aureus ATCC29213 (S. aureus ATCC29213) as Gram-positive bacteria, or, alternatively, Pseudomonas aeruginosa (P. aeruginosa ATCC27853) as Gram-negative bacteria, was used. The bacteria were cultured in media for 3 to 4 hours, and thereafter absorbances at A600 were measured. Bacterial suspensions were diluted with Mueller-Hinton broth (MHB) according to McFarland #0.5. Each strain was added so as to attain about 0.5−1×10^5 CFU/mL (final concentration) in terms of Escherichia coli. […] A solution to which the peptides were not added was considered as a negative control, and a solution to which tobramycin (TOB) was added was considered as a positive control. […] Relative values were calculated by comparison with the negative control, and these values were regarded as the viability. […] ATP (%) of the antibacterial activity was measured in the same manner as mentioned above, and the “minimum inhibitory concentration (MIC)” was measured as follows. MIC is the lowest concentration of an agent that may inhibit the growth of a bacterium. MIC is used as a parameter for the efficacy of an antibacterial agent, for the strength of bacterial sensitivity, or the like. The bacteria can grow (proliferate) when the concentration is not higher than MIC, and cannot grow when the concentration is higher than MIC. Its measurement is carried out according to a method defined as a standard method by Japanese Society of Chemotherapy or CLINICAL AND LABORATORY […] (CLSI), but, in this Example, its measurement was carried out by a broth microdilution method in accordance with “M100-S17/M7-A7” (Performance Standards for Antimicrobial Susceptibility Testing; Seventeenth Informational Supplement, Vol. 27 No. 1) published by CLSI on January, 2007. That is, sensitivity test of agents was carried out using a microtiter plate or test tubes. With respect to each strain, Escherichia coli: ATCC 25922 (Escherichia coli ATCC 25922), Pseudomonas aeruginosa: ATCC 27853 (Pseudomonas aeruginosa ATCC 27853), Staphylococcus aureus: ATCC29213 (Staphylococcus aureus ATCC29213), Klebsiella pneumoniae: JCM 1662 (Klebsiella pneumoniae JCM 1662), enterobacteria (1): JCM 1232 (Enterobacter cloacae JCM 1232), enterobacteria (2): JCM 1235 (Enterobacter aerogenes JCM 1235), and Staphylococcus epidermidis: JCM 2414 (Staphylococcus epidermidis JCM 2414), were used. […] As the concentrations of the agents in ATP assay, the concentrations as described in the Tables were used.

[2] = test system: Staphylococcus epidermidis JCM 2414; settings: ATP assay concentration: peptides 10, TOB 1.0, CPFX 0.5, OX 0.5, MEPM 0.125 μg/ml
Experimental: as §1

[3] = test system: Klebsiella pneumoniae JCM 1662; settings: ATP assay concentration: peptides 10, TOB 4.0, CPFX 1.0, OX 0.5, MEPM 8.0 μg/ml
Experimental: as §1

[4] = test system: Enterobacteria (2): Enterobacter aerogenes JCM 1235; settings: ATP assay concentration: peptides 10, TOB 4.0, CPFX 1.0, OX 4.0, MEPM 8.0 μg/ml
Experimental: as §1

[5] = test system: Pseudomonas aeruginosa ATCC27853; settings: Table 4-1; ATP assay concentration: peptides 10, TOB 1.0, CPFX 1.0, OX 0.5, MEPM 1.0 μg/ml
Experimental: (§2) The antibacterial activity of the polypeptides was measured using an ATP assay method. That is, using BacTiter-Glo Microbial Cell Viability Assay kit available from PROMEGA, the antibacterial activity of the peptides was evaluated from the viability of bacteria. […] With respect to the strains, Staphylococcus aureus ATCC29213 (S. aureus ATCC29213) as Gram-positive bacteria, or, alternatively, Pseudomonas aeruginosa (P. aeruginosa ATCC27853) as Gram-negative bacteria, was used. The bacteria were cultured in media for 3 to 4 hours, and thereafter absorbances at A600 were measured. Bacterial suspensions were diluted with Mueller-Hinton broth (MHB) according to McFarland #0.5. Each strain was added so as to attain about 0.5−1×10^5 CFU/mL (final concentration) in terms of Escherichia coli. […] A solution to which the peptides were not added was considered as a negative control, and a solution to which tobramycin (TOB) was added was considered as a positive control. […] Relative values were calculated by comparison with the negative control, and these values were regarded as the viability. ATP (%) of the antibacterial activity was measured in the same manner as mentioned above, and the “minimum inhibitory concentration (MIC)” was measured as follows. MIC is the lowest concentration of an agent that may inhibit the growth of a bacterium. MIC is used as a parameter for the efficacy of an antibacterial agent, for the strength of bacterial sensitivity, or the like. The bacteria can grow (proliferate) when the concentration is not higher than MIC, and cannot grow when the concentration is higher than MIC. Its measurement is carried out according to a method defined as a standard method by Japanese Society of Chemotherapy or CLINICAL AND LABORATORY […] (CLSI), but, in this Example, its measurement was carried out by a broth microdilution method in accordance with “M100-S17/M7-A7” (Performance Standards for Antimicrobial Susceptibility Testing; Seventeenth Informational Supplement, Vol. 27 No. 1) published by CLSI on January, 2007. That is, sensitivity test of agents was carried out using a microtiter plate or test tubes. With respect to each strain, Escherichia coli: ATCC 25922 (Escherichia coli ATCC 25922), Pseudomonas aeruginosa: ATCC 27853 (Pseudomonas aeruginosa ATCC 27853), Staphylococcus aureus: ATCC29213 (Staphylococcus aureus ATCC29213), Klebsiella pneumoniae: JCM 1662 (Klebsiella pneumoniae JCM 1662), enterobacteria (1): JCM 1232 (Enterobacter cloacae JCM 1232), enterobacteria (2): JCM 1235 (Enterobacter aerogenes JCM 1235), and Staphylococcus epidermidis: JCM 2414 (Staphylococcus epidermidis JCM 2414), were used. […] As the concentrations of the agents in ATP assay, the concentrations as described in the Tables were used.

[6] = test system: Staphylococcus aureus ATCC29213; settings: for antibacterial activity against Staphylococcus aureus compared with AG30-5C: 10 μg/mL, ATP assay; for ATP (%) mean, Staphylococcus aureus: Table 4-1, ATP assay concentration: peptides 10, TOB 1.0, OX 0.5 μg/ml
Experimental: as §2

| SMILES | ATP (%) mean, Escherichia coli [1] | ATP (%) mean, Staphylococcus epidermidis [2] | ATP (%) mean, Klebsiella pneumoniae [3] | ATP (%) mean, Enterobacteria (2) [4] | ATP (%) mean, Pseudomonas aeruginosa [5] | antibacterial activity against Staphylococcus aureus compared with AG30-5C [6] | ATP (%) mean, Staphylococcus aureus [6] |
| --- | --- | --- | --- | --- | --- | --- | --- |
| CC[C@H](C)[C@H](NC(=O)[C@H](CC(C)C)NC(=O)[C@@H](N)CCCCN)C(=O)N[C@@H](Cc1ccccc1)C(=O)N[C@@H](CC(C)C)C(=O)N[C@@H](Cc1c[nH]cn1)C(=O)N[C@@H](CCCNC(=N)N)C(=O)N[C@@H](CC(C)C)C(=O)N[C@@H](CCCCN)C(=O)N[C@@H](CCCNC(=N)N)C(=O)N[C@@H](CCSC)C(=O)N[C@@H](CCCNC(=N)N)C(=O)N[C@@H](CCCCN)C(=O)N[C@@H](CCCNC(=N)N)C(=O)N[C@@H](CC(C)C)C(=O)N[C@@H](CCCCN)C(=O)N[C@@H](CCCNC(=N)N)C(=O)N[C@@H](CCCCN)C(=O)N[C@@H](CC(C)C)C(=O)N[C@@H](CCCNC(=N)N)C(N)=O [SR-4] (H-KLIFLHRLKRMRKRLKRKLR-NH2; N-terminus assumed) | 13.0% | 5.5% | 15.0% | 20.9% | 9.8% | higher antibacterial activity against Staphylococcus aureus than AG30-5C | 1.0% |
| CC[C@H](C)[C@H](NC(=O)[C@H](CC(C)C)NC(=O)[C@H](CCCCN)NC(=O)[C@H](CC(C)C)NC(=O)[C@@H](N)CCSC)C(=O)N[C@@H](Cc1ccccc1)C(=O)N[C@@H](CC(C)C)C(=O)N[C@@H](Cc1c[nH]cn1)C(=O)N[C@@H](CCCNC(=N)N)C(=O)N[C@@H](CC(C)C)C(=O)N[C@@H](CCCCN)C(=O)N[C@@H](CCCNC(=N)N)C(=O)N[C@@H](CCSC)C(=O)N[C@@H](CCCNC(=N)N)C(=O)N[C@@H](CCCCN)C(=O)N[C@@H](CCCNC(=N)N)C(=O)N[C@@H](CC(C)C)C(=O)N[C@@H](CCCCN)C(=O)N[C@@H](CCCNC(=N)N)C(=O)N[C@@H](CCCCN)C(=O)O [SR-1] (H-MLKLIFLHRLKRMRKRLKRK-OH; N-terminus assumed) | 18.4% | 5.2% | 22.1% | 39.4% | 26.0% | higher antibacterial activity against Staphylococcus aureus than AG30-5C | 5.2% |
